Columns and labels:
[1] = target: T1, Avi-KRAS G12D (1-169) GppNHp/RAF1 RBD-3xFLAG (52-151) (Homo sapiens, UniProt P01116, G12D); assay: Raf1-KRAS G12D-GppNHP disruption HTRF assay (Biological Example 1); type: binding
T1 construct: Avi-KRAS G12D (1-169)
Method in brief: (§1)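 Compounds were tested for disruption of KRAS–RAF1 RBD binding by HTRF in 50 mM Tris pH 7.5, 100 mM NaCl, 5 mM MgCl2, 0.1% BSA, 0.01% Tween, 10% DMSO. Protein mix was incubated 1 h at room temperature with shaking, then detection reagents added for another 1 h. Activity expressed as percent of DMSO control.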

[2] = target: T2, Avi-KRAS G12R (1-169) GppNHp/RAF1 RBD-3xFLAG (52-151) (Homo sapiens, UniProt P01116, G12R); assay: Raf1-KRAS G12R-GppNHP disruption HTRF assay (Biological Example 1); type: binding
T2 construct: Avi-KRAS G12R (1-169)
T2 sequence (P01116 1-169 isoform P01116-2 G12R): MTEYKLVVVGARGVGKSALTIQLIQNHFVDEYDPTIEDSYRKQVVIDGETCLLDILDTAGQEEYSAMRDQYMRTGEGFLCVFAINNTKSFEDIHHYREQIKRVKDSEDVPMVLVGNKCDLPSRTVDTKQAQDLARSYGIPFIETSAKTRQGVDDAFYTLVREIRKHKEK
Method in brief: as §1

[3] = target: T3, Avi-KRAS G12V (1-169) GppNHp/RAF1 RBD-3xFLAG (52-151) (Homo sapiens, UniProt P01116, G12V); assay: Raf1-KRAS G12V-GppNHP disruption HTRF assay (Biological Example 1); type: binding
T3 construct: Avi-KRAS G12V (1-169)
T3 sequence (P01116 1-169 isoform P01116-2 G12V): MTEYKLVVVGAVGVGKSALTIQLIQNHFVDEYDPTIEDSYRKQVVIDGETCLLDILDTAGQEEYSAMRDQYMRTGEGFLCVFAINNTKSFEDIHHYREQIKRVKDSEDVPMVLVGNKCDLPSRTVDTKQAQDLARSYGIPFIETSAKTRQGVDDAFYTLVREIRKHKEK
Method in brief: as §1

[4] = target: T4, Avi-KRAS WT (1-169) GppNHp/RAF1 RBD-3xFLAG (52-151) (Homo sapiens, UniProt P01116); assay: Raf1-KRAS WT-GppNHP disruption HTRF assay (Biological Example 1); type: binding
T4 construct: Avi-KRAS WT (1-169)
T4 sequence (P01116 1-169 isoform P01116-2): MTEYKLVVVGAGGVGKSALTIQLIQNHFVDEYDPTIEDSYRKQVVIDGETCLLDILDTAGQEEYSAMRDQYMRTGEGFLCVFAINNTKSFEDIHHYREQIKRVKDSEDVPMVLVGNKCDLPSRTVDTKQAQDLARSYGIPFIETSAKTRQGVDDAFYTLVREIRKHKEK
Method in brief: as §1

GP2d cells (KRAS G12D) = assay: Cell-based pERK HTRF assay in GP2d cell (Biological Example 2); conditions: GP2d (KRAS G12D) cells, pERK HTRF
Method in brief: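 GP2d (KRAS G12D) cells were plated in DMEM/10% FBS and treated the next day for 60 min with compounds. Dosing used 9-point half-log series starting at 1 μM or 100 nM in 0.25% DMSO. Lysates were read by HTRF pERK (d2/Eu cryptate antibodies) after 4–24 h at room temperature, with excitation at 320 nm and emission at 615 nm.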

SW620 cells (KRAS G12V) = assay: Cell-based pERK HTRF assay in SW620 cell (Biological Example 4); conditions: Homo sapiens, SW-620, SW620 (KRAS G12V) cells, pERK HTRF
Method in brief: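 This assay measures inhibition of ERK phosphorylation downstream of KRAS G12V in intact SW620 cells. Compounds are applied for 4 h over nine half-log concentrations starting at 1 μM, and pERK is quantified by HTRF.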

[5] = KRAS G12D, GppNHp-loaded, class symbols
[6] = KRAS G12R, GppNHp-loaded, class symbols
[7] = KRAS G12V, GppNHp-loaded, class symbols
[8] = KRAS WT, GppNHp-loaded, class symbols
[9] = KRAS G12D, GppNHp-loaded, Table 11
[10] = KRAS G12R, GppNHp-loaded, Table 11
[11] = KRAS G12V, GppNHp-loaded, Table 11
[12] = KRAS WT, GppNHp-loaded, Table 11

T1 sequence (P01116 1-169 isoform P01116-2 G12D): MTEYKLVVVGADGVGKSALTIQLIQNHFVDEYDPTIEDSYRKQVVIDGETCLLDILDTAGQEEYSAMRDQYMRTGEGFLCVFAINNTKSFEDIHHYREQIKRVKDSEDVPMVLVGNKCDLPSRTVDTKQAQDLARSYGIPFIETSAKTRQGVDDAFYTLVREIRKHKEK

SMILES	IC50 ([1]; KRAS G12D-GppNHp/RAF1 RBD HTRF)	IC50 ([2]; KRAS G12R-GppNHp/RAF1 RBD HTRF)	IC50 ([3]; KRAS G12V-GppNHp/RAF1 RBD HTRF)	IC50 ([4]; KRAS WT-GppNHp/RAF1 RBD HTRF)	IC50 (GP2d cells (KRAS G12D); GP2d)	IC50 (SW620 cells (KRAS G12V))	IC50 [1, 5]	IC50 [2, 6]	IC50 [3, 7]	IC50 [4, 8]	IC50 (GP2d cells (KRAS G12D); GP2d, class symbols)	IC50 (SW620 cells (KRAS G12V); class symbols)	IC50 [1, 9]	IC50 [2, 10]	IC50 [3, 11]	IC50 [4, 12]	IC50 (GP2d cells (KRAS G12D))
C[C@@H]1[C@H](N(C)c2nc(OC[C@@]34CCCN3C[C@H](F)C4)nc3c(F)c(-c4ccc(F)c5sc(N)c(C#N)c45)c(C(F)(F)F)cc23)CCN1C(=O)C(C)(C)C [Compound 312]	100 to 1000 nM	100 to 1000 nM	100 to 1000 nM	100 to 1000 nM	< 100 nM	< 100 nM											
CCC(=O)N1CC[C@@H](N(CC)c2nc(OC[C@@]34CCCN3C[C@H](F)C4)nc3c(F)c(-c4ccc(F)c5sc(N)c(C#N)c45)c(Cl)cc23)[C@@H]1C [Compound 417]	100 to 1000 nM	1000 to 10000 nM	1000 to 10000 nM	100 to 1000 nM	< 100 nM	100 to 1000 nM											
CC(=O)N1CCC[C@H](N(C)c2nc(OC[C@@]34CCCN3C[C@H](F)C4)nc3c(F)c(-c4ccc(F)c5sc(N)c(C#N)c45)c(C(F)(F)F)cc23)C1 [Compound 289]	100 to 1000 nM	100 to 1000 nM	100 to 1000 nM	100 to 1000 nM	< 100 nM	< 100 nM											
C[C@@H]1[C@H](N(C)c2nc(OC[C@@]34CCCN3C[C@H](F)C4)nc3c(F)c(-c4ccc(F)c5sc(N)c(C#N)c45)c(Cl)cc23)CCN1C(=O)CF [Compound 460]	100 to 1000 nM	100 to 1000 nM	100 to 1000 nM	100 to 1000 nM		< 100 nM											< 100 nM
CN(C)C(=O)[C@@H]1CN(c2nc(OC[C@@]34CCCN3C[C@H](F)C4)nc3c(F)c(-c4ccc(F)c5sc(N)c(C#N)c45)c(C(F)(F)F)cc23)CCO1 [Compound 472]	100 to 1000 nM	1000 to 10000 nM	1000 to 10000 nM	1000 to 10000 nM	< 100 nM	< 100 nM											
N#Cc1c(N)sc2c(F)ccc(-c3c(C(F)(F)F)cc4c(N5CCC[C@@H](CO)C5)nc(OC[C@@]56CCCN5C[C@H](F)C6)nc4c3F)c12 [Compound 316]	100 to 1000 nM	100 to 1000 nM	1000 to 10000 nM	100 to 1000 nM	< 100 nM	< 100 nM											
COC[C@H]1CCN1c1nc(OC[C@@]23CCCN2C[C@H](F)C3)nc2c(F)c(-c3ccc(F)c4sc(N)c(C#N)c34)c(C(F)(F)F)cc12 [Compound 270]					100 to 1000 nM	100 to 1000 nM							100 to 1000 nM	100 to 1000 nM	100 to 1000 nM	100 to 1000 nM	
CN(C)C(=O)c1cc2n(n1)CCN(c1nc(OC[C@@]34CCCN3C[C@H](F)C4)nc3c(F)c(-c4ccc(F)c5sc(N)c(C#N)c45)c(C(F)(F)F)cc13)CC2 [Compound 426]	1000 to 10000 nM	1000 to 10000 nM	1000 to 10000 nM	1000 to 10000 nM	100 to 1000 nM	100 to 1000 nM											
CN(c1nc(OC[C@@]23CCCN2C[C@H](F)C3)nc2c(F)c(-c3ccc(F)c4sc(N)c(C#N)c34)c(C(F)(F)F)cc12)[C@H]1CC[C@@H](O)C1 [Compound 309]	100 to 1000 nM	100 to 1000 nM	100 to 1000 nM	100 to 1000 nM	< 100 nM	< 100 nM											
N#Cc1c(N)sc2c(F)ccc(-c3c(C(F)(F)F)cc4c(N5CCO[C@H]6C[C@H]65)nc(OC[C@@]56CCCN5C[C@H](F)C6)nc4c3F)c12 [Compound 403]	100 to 1000 nM	100 to 1000 nM	100 to 1000 nM	100 to 1000 nM	< 100 nM	< 100 nM											
N#Cc1c(N)sc2c(F)ccc(-c3c(C(F)(F)F)cc4c(N5C[C@@H]6CC[C@H]5CN6C(=O)C5CC5)nc(OC[C@@]56CCCN5C[C@H](F)C6)nc4c3F)c12 [Compound 456]	100 to 1000 nM	100 to 1000 nM	100 to 1000 nM	100 to 1000 nM	< 100 nM	< 100 nM											
N#Cc1c(N)sc2c(F)ccc(-c3c(C(F)(F)F)cc4c(N5C[C@@H]6C[C@H]5CS6(=O)=O)nc(OC[C@@]56CCCN5C[C@H](F)C6)nc4c3F)c12 [Compound 319]	100 to 1000 nM	1000 to 10000 nM	1000 to 10000 nM	1000 to 10000 nM	100 to 1000 nM	100 to 1000 nM											
CC(=O)N1C[C@H](F)[C@@H](N(C)c2nc(OC[C@@]34CCCN3C[C@H](F)C4)nc3c(F)c(-c4ccc(F)c5sc(N)c(C#N)c45)c(C(F)(F)F)cc23)C1 [Compound 273]					< 100 nM	100 to 1000 nM							100 to 1000 nM	100 to 1000 nM	100 to 1000 nM	100 to 1000 nM	

Second part, led by results:

IC50 ([1]; KRAS G12D-GppNHp/RAF1 RBD HTRF)	IC50 ([2]; KRAS G12R-GppNHp/RAF1 RBD HTRF)	IC50 ([3]; KRAS G12V-GppNHp/RAF1 RBD HTRF)	IC50 ([4]; KRAS WT-GppNHp/RAF1 RBD HTRF)	IC50 (GP2d cells (KRAS G12D); GP2d)	IC50 (SW620 cells (KRAS G12V))	IC50 [1, 5]	IC50 [2, 6]	IC50 [3, 7]	IC50 [4, 8]	IC50 (GP2d cells (KRAS G12D); GP2d, class symbols)	IC50 (SW620 cells (KRAS G12V); class symbols)	IC50 [1, 9]	IC50 [2, 10]	IC50 [3, 11]	IC50 [4, 12]	SMILES	IC50 (GP2d cells (KRAS G12D))
						< 100 nM	< 100 nM	< 100 nM	< 100 nM	< 100 nM	< 100 nM					C/C=C\C(=O)N1CC[C@H](N(CC)c2nc(OC[C@@]34CCCN3C[C@H](F)C4)nc3c(F)c(-c4ccc(F)c5sc(N)c(C#N)c45)c(C(F)(F)F)cc23)C1 (atropisomer, axis not shown) [Compound 677]	
< 100 nM	< 100 nM	< 100 nM	< 100 nM	< 100 nM	< 100 nM											CCN(c1nc(OC[C@@]23CCCN2C[C@H](F)C3)nc2c(F)c(-c3ccc(F)c4sc(N)c(C#N)c34)c(C(F)(F)F)cc12)[C@H]1CCN(C(=O)N2CCCC2)C1 [Compound 542]	
						< 100 nM	< 100 nM	< 100 nM	< 100 nM	< 100 nM	< 100 nM					CCN(c1nc(OC[C@@]23CCCN2C[C@H](F)C3)nc2c(F)c(-c3ccc(F)c4sc(N)c(C#N)c34)c(C(F)(F)F)cc12)[C@H]1CCN(C(=O)N2CC(OC(F)F)C2)C1 (atropisomer, axis not shown) [Compound 794]	
						< 100 nM	100 to 1000 nM	100 to 1000 nM	100 to 1000 nM	< 100 nM	< 100 nM					COC1CN(C(=O)N2CC[C@H](N(c3nc(OC[C@@]45CCCN4C[C@H](F)C5)nc4c(F)c(-c5ccc(F)c6sc(N)c(C#N)c56)c(C(F)(F)F)cc34)C3CC3)C2)C1 (atropisomer, axis not shown) [Compound 801]	
< 100 nM	< 100 nM	< 100 nM	< 100 nM	< 100 nM	< 100 nM											CCN(c1nc(OC[C@@]23CCCN2C[C@H](F)C3)nc2c(F)c(-c3ccc(F)c4sc(N)c(C#N)c34)c(C(F)(F)F)cc12)[C@H]1CCN(C(=O)c2ccno2)C1 (atropisomer, axis not shown) [Compound 552]	
						< 100 nM	< 100 nM	< 100 nM	< 100 nM	< 100 nM	< 100 nM					[2H]C1([2H])OC(=O)N2C[C@@H](N(CC)c3nc(OC[C@@]45CCCN4C[C@H](F)C5)nc4c(F)c(-c5ccc(F)c6sc(N)c(C#N)c56)c(C(F)(F)F)cc34)C[C@H]21 (atropisomer, axis not shown) [Compound 760]	
						100 to 1000 nM	1000 to 10000 nM	1000 to 10000 nM	1000 to 10000 nM	100 to 1000 nM	100 to 1000 nM					CCN(c1nc(OC[C@@]23CCCN2C[C@H](F)C3)nc2c(F)c(-c3ccc(F)c4sc(N)c(C#N)c34)c(C(F)(F)F)cc12)[C@H]1CCN(C(=O)N(C)C)[C@H]1C (atropisomer, axis not shown) [Compound 798]	
						100 to 1000 nM	100 to 1000 nM	100 to 1000 nM	1000 to 10000 nM	< 100 nM	100 to 1000 nM					Cc1ccc(CN(C)c2nc(OC[C@@]34CCCN3C[C@H](F)C4)nc3c(F)c(-c4ccc(F)c5sc(N)c(C#N)c45)c(C(F)(F)F)cc23)c(N)n1 (atropisomer, axis not shown) [Compound 736]	
